Measurements as given in patent publication US20180289678A1, “PHARMACEUTICAL COMPOSITION, PHARMACEUTICAL DOSAGE FORM, PROCESS FOR THEIR PREPARATION, METHODS FOR TREATING AND USES THEREOF” (Boehringer Ingelheim International GmbH, priority 2009, published 2018).

Assay: Particle size distribution measurement by laser diffraction
Format: physicochemical
Conditions: particle size distribution by volume
Text: The value X90 refers to the 90% value of the volume distribution measured using a laser diffractometer. In other words, for the purposes of the present invention, the X90 value denotes the particle size below which 90% of the quantity of particles is found based on the volume distribution. Analogously the value X50 refers to the 50% value (median) of the volume distribution measured using a laser diffractometer. In other words, for the purposes of the present invention, the X50 value denotes the particle size below which 50% of the quantity of particles is found based on the volume distribution. Analogously the value X10 refers to the 10% value of the volume distribution measured using a laser diffractometer. In other words, for the purposes of the present invention, the X10 value denotes the particle size below which 10% of the quantity of particles is found based on the volume distribution.
Preferably all X90, X50, X10 values hereinbefore and hereinafter are by volume and determined by laser-diffraction method, in particular low angle laser light scattering, i.e. Fraunhofer diffraction. A preferred test is described in the experimental section. The laser diffraction method is sensitive to the volume of a particle and provides a volume-average particle size, which is equivalent to the weight-average particle size if the density is constant.
3. Particle Size Distribution Measurement by Laser Diffraction
Particle size distribution measurement is performed for example via light scattering or laser diffraction technique. To determine the particle size the powder is fed into a laser diffraction spectrometer for example by means of a dispersing unit. The test method is described below in detail:
Equipment: Laser Diffraction Spectrometer Sympatec HELOS Particle Sizer.
Sample Dispersing Unit: Dry disperser RODOS/M
Feed Velocity: 60.00 mm/s
Primary pressure: 2.00 bar
Injector depression: maximize (mbar)2
Reference Measurement: 10 seconds
Trigger Conditions: Start 0.0 seconds after optical concentration 1% valid always
Stop after 5.0 seconds optical concentration 1% or after 30 seconds real time
Optical Concentration: Approximately range 3-12%
Sample Size: Approximately 100 mg
Number of measurements: 2 (duplicate)
The instrument is set up according to the manufacturer's recommendation and using the manufacturer provided software. The sample container is thoroughly mixed and tumbled prior to removing a portion of the sample to ensure that a representative sample is tested. Duplicate samples are prepared by using a spatula to transfer approximately 100 mg of a sample into the ASPIROS glass vials and cap the vials. The capped cials are placed into the feeder.

| SMILES | X10 [μm] | X50 [μm] | X90 [μm] |
| --- | --- | --- | --- |
| OC[C@H]1O[C@@H](c2ccc(Cl)c(Cc3ccc(O[C@H]4CCOC4)cc3)c2)[C@H](O)[C@@H](O)[C@@H]1O [Active substance Batch 2] | 1.7 | 12.1 | 25.9 |
| OC[C@H]1O[C@@H](c2ccc(Cl)c(Cc3ccc(O[C@H]4CCOC4)cc3)c2)[C@H](O)[C@@H](O)[C@@H]1O [Active substance Batch 1] | 1.8 | 18.9 | 45.3 |
